Reference: patent US9340590B2 (priority 2011, dated 2016)
Positions of bridges follow the written chain, without caps; N, C: chain ends. Non-standard residues stand in square brackets, D forms with d. Residues, ends and D or L forms follow the SMILES beside them. Bip = N[C@@H](Cc1ccc(-c2ccccc2)cc1)C(=O)O; Phg = N[C@H](C(=O)O)c1ccccc1

Columns and labels:
Assay in all cases: cell-based
hNav1.5 = hNav1.5 (Homo sapiens, UniProt Q14524); settings: Table 24; IonWorks Quattro, use; […]; read-out: IWQ Use Nav1.5
hNav1.3 = hNav1.3 (Homo sapiens, UniProt Q9NY46); settings: Table 24; IonWorks Quattro, use; […]; read-out: IWQ Use Nav1.3
hNav1.7 = hNav1.7 (Homo sapiens, UniProt Q15858); type: cell-based; settings: Table 24; IonWorks Quattro, use; […]; read-out: IWQ Use Nav1.7
Sequence of hNav1.7 (Q15858 whole entry, looked up): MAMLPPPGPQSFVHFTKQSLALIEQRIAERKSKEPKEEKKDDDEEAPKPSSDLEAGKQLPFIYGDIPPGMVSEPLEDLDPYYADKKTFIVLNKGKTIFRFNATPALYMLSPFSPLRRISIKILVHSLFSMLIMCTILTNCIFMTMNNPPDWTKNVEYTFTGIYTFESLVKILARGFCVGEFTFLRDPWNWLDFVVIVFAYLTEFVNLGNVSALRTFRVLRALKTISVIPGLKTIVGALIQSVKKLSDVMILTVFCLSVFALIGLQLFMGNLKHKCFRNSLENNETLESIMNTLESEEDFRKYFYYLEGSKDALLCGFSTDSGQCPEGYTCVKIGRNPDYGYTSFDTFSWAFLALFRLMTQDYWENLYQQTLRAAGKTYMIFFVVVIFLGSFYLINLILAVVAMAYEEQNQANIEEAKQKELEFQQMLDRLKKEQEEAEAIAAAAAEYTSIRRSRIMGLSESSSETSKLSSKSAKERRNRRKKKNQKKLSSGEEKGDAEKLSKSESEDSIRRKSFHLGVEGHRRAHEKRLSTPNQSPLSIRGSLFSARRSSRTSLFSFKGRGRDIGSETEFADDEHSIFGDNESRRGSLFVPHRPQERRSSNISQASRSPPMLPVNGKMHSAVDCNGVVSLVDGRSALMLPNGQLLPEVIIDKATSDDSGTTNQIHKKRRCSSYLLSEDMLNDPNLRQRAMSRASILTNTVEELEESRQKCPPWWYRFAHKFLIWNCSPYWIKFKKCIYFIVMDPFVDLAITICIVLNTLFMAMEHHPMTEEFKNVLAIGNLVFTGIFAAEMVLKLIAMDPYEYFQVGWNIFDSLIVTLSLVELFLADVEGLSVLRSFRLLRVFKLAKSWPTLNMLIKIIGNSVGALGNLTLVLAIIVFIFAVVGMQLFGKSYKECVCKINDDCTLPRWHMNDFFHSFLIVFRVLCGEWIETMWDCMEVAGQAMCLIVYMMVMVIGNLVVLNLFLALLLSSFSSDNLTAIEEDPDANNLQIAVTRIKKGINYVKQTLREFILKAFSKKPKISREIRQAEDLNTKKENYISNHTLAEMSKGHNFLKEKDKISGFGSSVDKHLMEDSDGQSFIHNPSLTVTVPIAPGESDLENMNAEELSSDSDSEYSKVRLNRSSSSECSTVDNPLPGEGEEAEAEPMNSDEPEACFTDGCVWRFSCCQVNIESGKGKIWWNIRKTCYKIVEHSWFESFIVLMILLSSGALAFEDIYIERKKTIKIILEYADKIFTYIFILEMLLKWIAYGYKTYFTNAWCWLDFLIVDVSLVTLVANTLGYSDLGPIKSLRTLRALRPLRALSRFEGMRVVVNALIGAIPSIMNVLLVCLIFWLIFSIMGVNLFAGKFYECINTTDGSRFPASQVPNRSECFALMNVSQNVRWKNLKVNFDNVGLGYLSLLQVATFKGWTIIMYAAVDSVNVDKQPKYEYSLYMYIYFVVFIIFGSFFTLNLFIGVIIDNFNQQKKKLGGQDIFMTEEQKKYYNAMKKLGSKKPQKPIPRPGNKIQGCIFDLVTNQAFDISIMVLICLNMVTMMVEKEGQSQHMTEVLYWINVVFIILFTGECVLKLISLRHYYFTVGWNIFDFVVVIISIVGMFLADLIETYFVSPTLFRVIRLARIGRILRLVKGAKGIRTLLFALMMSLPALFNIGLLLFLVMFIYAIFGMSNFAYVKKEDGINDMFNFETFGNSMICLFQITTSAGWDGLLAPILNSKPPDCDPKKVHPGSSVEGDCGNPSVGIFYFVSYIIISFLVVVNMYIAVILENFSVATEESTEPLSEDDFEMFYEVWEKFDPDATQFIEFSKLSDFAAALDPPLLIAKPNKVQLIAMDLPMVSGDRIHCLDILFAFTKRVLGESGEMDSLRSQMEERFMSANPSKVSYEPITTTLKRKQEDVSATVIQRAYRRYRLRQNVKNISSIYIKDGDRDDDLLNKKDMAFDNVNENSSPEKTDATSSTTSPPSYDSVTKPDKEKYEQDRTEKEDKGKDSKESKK

Sequence of hNav1.5 (Q14524 whole entry, looked up): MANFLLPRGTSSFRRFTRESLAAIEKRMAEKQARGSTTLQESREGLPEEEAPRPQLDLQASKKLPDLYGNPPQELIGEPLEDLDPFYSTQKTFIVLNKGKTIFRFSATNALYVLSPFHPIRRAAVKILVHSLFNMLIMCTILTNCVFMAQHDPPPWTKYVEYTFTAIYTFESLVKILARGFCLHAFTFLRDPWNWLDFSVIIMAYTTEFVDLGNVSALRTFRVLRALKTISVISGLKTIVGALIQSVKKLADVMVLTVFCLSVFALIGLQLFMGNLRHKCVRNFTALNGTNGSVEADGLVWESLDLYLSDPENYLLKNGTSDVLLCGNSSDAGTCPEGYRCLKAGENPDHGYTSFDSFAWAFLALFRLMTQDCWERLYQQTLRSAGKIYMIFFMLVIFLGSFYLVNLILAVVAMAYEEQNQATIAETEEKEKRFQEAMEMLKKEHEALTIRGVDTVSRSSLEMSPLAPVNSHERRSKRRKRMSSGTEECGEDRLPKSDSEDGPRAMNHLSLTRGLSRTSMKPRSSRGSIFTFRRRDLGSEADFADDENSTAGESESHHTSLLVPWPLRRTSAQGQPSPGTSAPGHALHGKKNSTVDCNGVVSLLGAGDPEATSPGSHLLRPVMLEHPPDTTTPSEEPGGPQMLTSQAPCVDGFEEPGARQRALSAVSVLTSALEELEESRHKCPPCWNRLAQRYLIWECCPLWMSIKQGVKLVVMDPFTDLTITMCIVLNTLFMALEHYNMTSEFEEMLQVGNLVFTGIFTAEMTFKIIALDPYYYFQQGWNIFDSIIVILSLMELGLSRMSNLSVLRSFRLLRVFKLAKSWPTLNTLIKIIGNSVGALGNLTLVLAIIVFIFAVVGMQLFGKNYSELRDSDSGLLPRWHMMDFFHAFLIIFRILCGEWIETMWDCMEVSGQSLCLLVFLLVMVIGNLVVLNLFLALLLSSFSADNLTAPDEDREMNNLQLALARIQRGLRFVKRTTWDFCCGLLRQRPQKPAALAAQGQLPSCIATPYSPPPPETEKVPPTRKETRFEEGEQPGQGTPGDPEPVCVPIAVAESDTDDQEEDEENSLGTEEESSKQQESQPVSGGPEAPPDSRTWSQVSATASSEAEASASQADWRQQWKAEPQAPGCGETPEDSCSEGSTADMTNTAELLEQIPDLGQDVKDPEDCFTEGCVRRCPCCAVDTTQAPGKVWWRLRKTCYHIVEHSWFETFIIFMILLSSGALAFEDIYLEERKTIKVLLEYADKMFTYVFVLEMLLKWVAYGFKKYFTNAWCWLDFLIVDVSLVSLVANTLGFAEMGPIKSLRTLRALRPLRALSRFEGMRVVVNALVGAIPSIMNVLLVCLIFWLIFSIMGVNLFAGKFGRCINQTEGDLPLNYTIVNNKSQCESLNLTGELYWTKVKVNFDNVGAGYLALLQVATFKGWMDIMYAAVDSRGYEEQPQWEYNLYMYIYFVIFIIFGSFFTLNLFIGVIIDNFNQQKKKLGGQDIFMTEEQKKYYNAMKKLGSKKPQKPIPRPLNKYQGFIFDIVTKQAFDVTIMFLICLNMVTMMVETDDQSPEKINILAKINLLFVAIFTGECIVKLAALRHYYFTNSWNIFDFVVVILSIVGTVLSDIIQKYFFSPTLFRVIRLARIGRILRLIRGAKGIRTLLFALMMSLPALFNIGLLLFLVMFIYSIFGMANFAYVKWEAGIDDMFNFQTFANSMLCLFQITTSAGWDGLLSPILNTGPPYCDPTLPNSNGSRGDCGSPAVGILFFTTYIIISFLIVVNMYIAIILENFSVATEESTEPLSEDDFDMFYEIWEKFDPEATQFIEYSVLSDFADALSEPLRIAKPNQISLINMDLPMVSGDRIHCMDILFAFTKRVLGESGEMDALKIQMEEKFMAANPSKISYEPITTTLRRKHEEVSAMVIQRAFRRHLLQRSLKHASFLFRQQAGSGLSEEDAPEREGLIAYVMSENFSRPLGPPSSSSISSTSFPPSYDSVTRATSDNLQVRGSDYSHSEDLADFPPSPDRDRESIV

Row | SMILES | IC50 (hNav1.5) | IC50 (hNav1.3) | IC50 (hNav1.7)
1 | CC[C@H](C)[C@@H]1NC(=O)[C@@H]2CSSC[C@@H]3NC(=O)[C@H](C(C)C)NC(=O)[C@H](CC(C)C)NC(=O)[C@H](CC(N)=O)NC(=O)[C@@H]4CCCN4C(=O)[C@H](CCCNC(=N)N)NC(=O)[C@H](CSSC[C@H](NC(=O)[C@@H](N)CC(=O)O)C(=O)N[C@@H](CC(C)C)C(=O)NCC(=O)N[C@@H](Cc4ccccc4)C(=O)N[C@@H](CCSC)C(=O)N[C@@H](CCCNC(=N)N)C(=O)N[C@@H](CCCCN)C(=O)N2)NC(=O)[C@H](CSSC[C@@H](C(=O)N[C@@H](CCCCN)C(=O)N[C@@H](Cc2ccc(O)cc2)C(=O)N[C@H](C(=O)N[C@@H](Cc2ccccc2)C(N)=O)C(C)C)NC(=O)[C@H](Cc2ccc(-c4ccccc4)cc2)NC(=O)[C@H](CCCCN)NC(=O)[C@H](Cc2c[nH]cn2)NC(=O)[C@H]([C@@H](C)O)NC(=O)[C@H](CCCNC(=N)N)NC(=O)[C@H](CO)NC3=O)NC(=O)[C@H](CCCCN)NC(=O)[C@H](CC(=O)O)NC(=O)[C@H](CC(N)=O)NC(=O)[C@H](CC(=O)O)NC(=O)[C@@H]2CCCN2C1=O [compound 360] (H-DCLGFMRKCIPDNDKCCRPNLVCSRTHK[Bip]CKYVF-NH2; disulfide 2-17, 9-23, 16-30) | 9.77 µM | 6.95 µM | 4.79 µM
2 | CC[C@H](C)[C@@H]1NC(=O)[C@@H]2CSSC[C@@H]3NC(=O)[C@H](C(C)C)NC(=O)[C@H](CC(C)C)NC(=O)[C@H](CC(N)=O)NC(=O)[C@@H]4CCCN4C(=O)[C@H](CCCNC(=N)N)NC(=O)[C@H](CSSC[C@H](NC(=O)[C@@H](N)CC(=O)O)C(=O)N[C@@H](CC(C)C)C(=O)NCC(=O)N[C@@H](Cc4ccccc4)C(=O)N[C@@H](CCSC)C(=O)N[C@@H](CCCNC(=N)N)C(=O)N[C@@H](CCCCN)C(=O)N2)NC(=O)[C@H](CSSC[C@@H](C(=O)N[C@@H](CCCCN)C(=O)N[C@@H](Cc2ccc(O)cc2)C(=O)N[C@H](C(=O)N[C@@H](Cc2ccccc2)C(N)=O)C(C)C)NC(=O)[C@H](Cc2cn(C)c4ccccc24)NC(=O)[C@H](CCCCN)NC(=O)[C@H](Cc2c[nH]cn2)NC(=O)[C@H]([C@@H](C)O)NC(=O)[C@H](CCCNC(=N)N)NC(=O)[C@H](CO)NC3=O)NC(=O)[C@H](CCCCN)NC(=O)[C@H](CC(=O)O)NC(=O)[C@H](CC(N)=O)NC(=O)[C@H](CC(=O)O)NC(=O)[C@@H]2CCCN2C1=O [compound 361] | 12.2 µM | 4.58 µM | 3.89 µM
3 | CC[C@H](C)[C@@H]1NC(=O)[C@@H]2CSSC[C@@H]3NC(=O)[C@H](C(C)C)NC(=O)[C@H](CC(C)C)NC(=O)[C@H](CC(N)=O)NC(=O)[C@@H]4CCCN4C(=O)[C@H](CCCNC(=N)N)NC(=O)[C@H](CSSC[C@H](NC(=O)[C@@H](N)CC(=O)O)C(=O)N[C@@H](CC(C)C)C(=O)NCC(=O)N[C@@H](Cc4ccccc4)C(=O)N[C@@H](CCSC)C(=O)N[C@@H](CCCNC(=N)N)C(=O)N[C@@H](CCCCN)C(=O)N2)NC(=O)[C@H](CSSC[C@@H](C(=O)N[C@@H](CCCCN)C(=O)N[C@@H](Cc2ccc(O)cc2)C(=O)N[C@H](C(=O)N[C@@H](Cc2ccccc2)C(N)=O)C(C)C)NC(=O)[C@H](c2ccccc2)NC(=O)[C@H](CCCCN)NC(=O)[C@H](Cc2c[nH]cn2)NC(=O)[C@H]([C@@H](C)O)NC(=O)[C@H](CCCNC(=N)N)NC(=O)[C@H](CO)NC3=O)NC(=O)[C@H](CCCCN)NC(=O)[C@H](CC(=O)O)NC(=O)[C@H](CC(N)=O)NC(=O)[C@H](CC(=O)O)NC(=O)[C@@H]2CCCN2C1=O [compound 362] (H-DCLGFMRKCIPDNDKCCRPNLVCSRTHK[Phg]CKYVF-NH2; disulfide 2-17, 9-23, 16-30) | 7.85 µM | 3.18 µM | 5.52 µM
